Patent US20260042764A1, “COMPOSITIONS AND METHODS FOR INHIBITION OF KRAS” (TheRas, Inc., priority 2022, published 2026)

Assays:
[1] = target: T1, Avi-KRAS G12R (1-169) GppNHp/RAF1 RBD-3xFLAG (52-151) (Homo sapiens, UniProt P01116, G12R); assay: Raf1-KRAS G12R-GppNHP disruption HTRF assay (Biological Example 1); assay type: binding; details: KRAS G12R, GppNHp-loaded; Table 11
T1 construct: Avi-KRAS G12R (1-169)
Description: A protein:protein interaction (PPI) Homogeneous Time Resolved Fluorescence (HTRF) assay was used to determine the effectiveness of compounds of the present disclosure in disrupting KRAS protein and effector RAF1 binding.
The assay buffer included: 50 mM Tris pH 7.5, 100 mM NaCl, 5 mM MgCl2, 0.1% BSA, 0.01% Tween, and 10% DMSO. The bead buffer included: 50 mM Tris pH 7.5, and 0.01% Tween 20. Assay volume of 20 μL was used in a 384 well plate-low volume format.
The HTRF assay employed the following protocol:
Protein mix was prepared in assay buffer, and dispensed on plates, 10 μL per well, then incubated for 1 h at room temperature, with 700 rpm shaking, Reagents mix was prepared and dispensed on plates, 10 μL per well, then incubated for 1 h at room temperature, with 700 rpm shaking.
Data was reported as percentage of activity, with DMSO as 100%. Data was plotted and analyzed using Prism 8.

[2] = target: T2, Avi-KRAS G12D (1-169) GppNHp/RAF1 RBD-3xFLAG (52-151) (Homo sapiens, UniProt P01116, G12D); assay: Raf1-KRAS G12D-GppNHP disruption HTRF assay (Biological Example 1); assay type: binding; details: KRAS G12D, GppNHp-loaded; Table 11
T2 construct: Avi-KRAS G12D (1-169)
In short: (§1)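 Protein mix, 1 h RT, 700 rpm; reagent mix, 1 h RT, 700 rpm; HTRF read. Buffer Tris pH 7.5/NaCl/MgCl2/BSA/Tween, 10% DMSO. Output % activity, DMSO = 100%.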

[3] = target: T3, Avi-KRAS WT (1-169) GppNHp/RAF1 RBD-3xFLAG (52-151) (Homo sapiens, UniProt P01116); assay: Raf1-KRAS WT-GppNHP disruption HTRF assay (Biological Example 1); assay type: binding; details: KRAS WT, GppNHp-loaded; Table 11
T3 construct: Avi-KRAS WT (1-169)
In short: as §1

[4] = target: T4, Avi-KRAS G12V (1-169) GppNHp/RAF1 RBD-3xFLAG (52-151) (Homo sapiens, UniProt P01116, G12V); assay: Raf1-KRAS G12V-GppNHP disruption HTRF assay (Biological Example 1); assay type: binding; details: KRAS G12V, GppNHp-loaded; Table 11
T4 construct: Avi-KRAS G12V (1-169)
In short: as §1

GP2d cells (KRAS G12D) = assay: Cell-based pERK HTRF assay in GP2d cell (Biological Example 2); details: GP2d, GP2d (KRAS G12D) cells, pERK HTRF
In short: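 60 min compound, 0.25% DMSO, 9-pt half-log curve from 1 μM or 100 nM; DMEM/10% FBS.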

T1 sequence (P01116 1-169 isoform P01116-2 G12R): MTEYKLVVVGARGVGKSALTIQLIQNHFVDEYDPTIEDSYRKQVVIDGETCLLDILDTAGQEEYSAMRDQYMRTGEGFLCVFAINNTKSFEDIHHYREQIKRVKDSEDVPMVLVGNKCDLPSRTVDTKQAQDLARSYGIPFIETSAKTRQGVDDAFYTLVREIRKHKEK
T3 sequence (P01116 1-169 isoform P01116-2): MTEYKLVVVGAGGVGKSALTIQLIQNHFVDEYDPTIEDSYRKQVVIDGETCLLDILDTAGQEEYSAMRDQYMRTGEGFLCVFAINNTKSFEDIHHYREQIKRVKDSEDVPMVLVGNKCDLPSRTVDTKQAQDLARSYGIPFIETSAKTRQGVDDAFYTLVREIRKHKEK
T4 sequence (P01116 1-169 isoform P01116-2 G12V): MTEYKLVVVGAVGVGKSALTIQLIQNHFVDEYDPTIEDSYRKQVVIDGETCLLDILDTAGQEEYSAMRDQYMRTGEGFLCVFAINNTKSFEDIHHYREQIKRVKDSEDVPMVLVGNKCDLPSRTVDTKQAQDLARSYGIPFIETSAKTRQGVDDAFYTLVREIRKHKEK
T2 sequence (P01116 1-169 isoform P01116-2 G12D): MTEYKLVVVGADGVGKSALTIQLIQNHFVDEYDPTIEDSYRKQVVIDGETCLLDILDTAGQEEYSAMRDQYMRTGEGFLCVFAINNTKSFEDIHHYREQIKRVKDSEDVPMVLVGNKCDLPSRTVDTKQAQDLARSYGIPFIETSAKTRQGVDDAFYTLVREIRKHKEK

SMILES | IC50 [1] [nM] | IC50 [2] [nM] | IC50 [3] [nM] | IC50 [4] [nM] | IC50 (GP2d cells (KRAS G12D)) [nM]
CN(c1nc(OC[C@@]23CCCN2C[C@H](F)C3)nc2c(F)c(-c3ccc(F)c4sc(N)c(C#N)c34)c(C(F)(F)F)cc12)[C@@H]1C[C@H](O)[C@@H]1CO [Compound 37] | < 100 | < 100 | < 100 | 100 to 1000 | < 100
CN(c1nc(OC[C@@]23CCCN2C[C@H](F)C3)nc2c(F)c(-c3ccc(F)c4sc(N)c(C#N)c34)ccc12)[C@H]1C[C@@H](O)C1 [Compound 28] | 1000 to 10000 | 100 to 1000 | 100 to 1000 | 1000 to 10000 | 100 to 1000
N#Cc1c(N)sc2c(F)ccc(-c3c(C(F)(F)F)cc4c(N5CCC(CO)CC5)nc(OC[C@@]56CCCN5C[C@H](F)C6)nc4c3F)c12 [Compound 44, 2-amino-7-fluoro-4-(8-fluoro-2-(((2R,7aS)-2-fluorotetrahydro-1H-pyrrolizin-7a(5H)-yl)methoxy)-4-(4-(hydroxymethyl)piperidin-1-yl)-6-(trifluoromethyl)quinazolin-7-yl)benzo[b]thiophene-3-carbonitrile] | 100 to 1000 | 100 to 1000 | 100 to 1000 | 100 to 1000 | < 100
CN(c1nc(OC[C@@]23CCCN2C[C@H](F)C3)nc2c(F)c(-c3ccc(F)c4sc(N)c(C#N)c34)c(Cl)cc12)[C@H]1C[C@@H](O)C1 [Compound 24] | 100 to 1000 | 100 to 1000 | 100 to 1000 | 100 to 1000 | < 100
CN(c1nc(OC[C@@]23CCCN2C[C@H](F)C3)nc2c(F)c(-c3ccc(F)c4sc(N)c(C#N)c34)c(C(F)(F)F)cc12)[C@H]1CCOC1 [Compound 133] | 100 to 1000 | 100 to 1000 | 100 to 1000 | 100 to 1000 | < 100
CCN(c1nc(OC[C@@]23CCCN2C[C@H](F)C3)nc2c(F)c(-c3ccc(F)c4sc(N)c(C#N)c34)c(C(F)(F)F)cc12)C1CC1 [Compound 155] | 100 to 1000 | 100 to 1000 | 1000 to 10000 | 1000 to 10000 | < 100
N#Cc1c(N)sc2c(F)ccc(-c3c(C(F)(F)F)cc4c(N5CCC(F)(F)C5)nc(OC[C@@]56CCCN5C[C@H](F)C6)nc4c3F)c12 [Compound 159] | 100 to 1000 | 100 to 1000 | 100 to 1000 | 1000 to 10000 | < 100
N#Cc1c(N)sc2c(F)ccc(-c3c(C(F)(F)F)cc4c(N5C[C@@H](F)[C@@H](F)C5)nc(OC[C@@]56CCCN5C[C@H](F)C6)nc4c3F)c12 [Compound 157] | 100 to 1000 | 100 to 1000 | 100 to 1000 | 1000 to 10000 | < 100
C[C@H](CO)N(C)c1nc(OC[C@@]23CCCN2C[C@H](F)C3)nc2c(F)c(-c3ccc(F)c4sc(N)c(C#N)c34)c(C(F)(F)F)cc12 [Compound 76] | 100 to 1000 | < 100 | 100 to 1000 | 100 to 1000 | < 100
CN(c1nc(OC[C@@]23CCCN2C[C@H](F)C3)nc2c(F)c(-c3ccc(F)c4scc(C#N)c34)c(C(F)(F)F)cc12)[C@@H]1CCN(C(=O)CC#N)C1 [Compound 106] | > 10000 | > 10000 | > 10000 | > 10000 | > 1000
CCN(CCCO)c1nc(OC[C@@]23CCCN2C[C@H](F)C3)nc2c(F)c(-c3ccc(F)c4sc(N)c(C#N)c34)c(C(F)(F)F)cc12 [Compound 175] | 100 to 1000 | 100 to 1000 | 100 to 1000 | 100 to 1000 | < 100
CN(c1nc(OC[C@@]23CCCN2C[C@H](F)C3)nc2c(F)c(-c3ccc(F)c4sc(N)c(C#N)c34)c(C(F)(F)F)cc12)C1(CO)CC1 [Compound 170] | 100 to 1000 | 100 to 1000 | 100 to 1000 | 100 to 1000 | < 100
